Assay results taken from patent EP1614683B1, “Indazole compounds and pharmaceutical compositions for inhibiting protein kinases, and methods for their use” (priority 1999, dated 2001).
Read-outs that look alike come from different tables or passages of the source.

Experiments:
[1] = target: human FGF-R1 (Homo sapiens, UniProt P11362, C488A/C584S/L457V); assay: FGF-R spectrophotometric assay; format: biochemical; conditions: for inhibition at 1 µM: compound concentration 1 µM, read-out: FGF-P* (% inhibition)
Protocol: The spectrophotometric assay was carried out as described above for VEGF-R2, except for the following changes in concentration: FGF-R = 50 nM, ATP = 2 mM, and poly(E4Y1) =15 mM.

[2] = target: LCK tyrosine kinase (Homo sapiens, UniProt P06239, C224D/P223M); assay: LCK spectrophotometric assay; format: biochemical; conditions: read-out: Lck-P* (% inhibition)
Protocol: The spectrophotometric assay was carried out as described above for VEGF-R2, except for the following changes in concentration: LCK = 60 nM, MgCl2 = 0 mM, poly(E4Y1) = 20 mM.

[3] = target: T1, human CHK1 (FL-CHK1) (Homo sapiens, UniProt O14757); assay: CHK1 coupled spectrophotometric assay; format: biochemical; conditions: Table 1; read-out: CHK -1* (Ki)
T1 construct: C-terminally His-tagged full-length human CHK1 (FL-CHK1) was expressed using the baculovirus/insect cell system; made in house; host or cells: baculovirus/insect cell system
T1 sequence (O14757 1-476): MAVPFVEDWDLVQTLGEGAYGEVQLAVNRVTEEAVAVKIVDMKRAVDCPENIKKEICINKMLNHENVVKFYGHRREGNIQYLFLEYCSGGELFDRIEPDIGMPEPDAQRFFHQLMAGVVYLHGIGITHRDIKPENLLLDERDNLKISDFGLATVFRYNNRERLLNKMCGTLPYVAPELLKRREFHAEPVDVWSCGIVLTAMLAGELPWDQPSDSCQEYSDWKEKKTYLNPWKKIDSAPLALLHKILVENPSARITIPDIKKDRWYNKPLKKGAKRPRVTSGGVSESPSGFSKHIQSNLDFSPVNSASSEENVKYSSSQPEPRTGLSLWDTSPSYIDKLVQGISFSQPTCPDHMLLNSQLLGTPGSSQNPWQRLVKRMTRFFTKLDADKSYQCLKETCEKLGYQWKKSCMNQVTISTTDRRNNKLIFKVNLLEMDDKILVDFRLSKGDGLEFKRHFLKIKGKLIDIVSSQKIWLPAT
From the text: CHK1 Construct for Assay: C-terminally His-tagged full-length human CHK1 (FL-CHK1) was expressed using the baculovirus/insect cell system. […] The protein was purified by conventional chromatographic techniques.
The production of ADP from ATP that accompanies phosphoryl transfer to the synthetic substrate peptide Syntide-2 ([…]) was coupled to oxidation of NADH using phosphoenolpyruvate (PEP) through the actions of pyruvate kinase (PK) and lactic dehydrogenase (LDH). The oxidation of NADH was monitored by following the decrease of absorbance at 340 nm (∈340 = 6.22 cm^-1 mM^-1) using a HP8452 spectrophotometer. […] Assays were initiated with 10 nM of FL-CHK1. Ki values were determined by measuring initial enzyme activity in the presence of varying concentrations of test compounds. The data were analyzed using Enzyme Kinetic and Kaleidagraph software.

[4] = target: T2, phosphorylated Tie-2 (aa 775-1122) (Homo sapiens, UniProt Q02763); assay: TIE-2 spectrophotometric assay; format: biochemical; conditions: for inhibition at 1 µM: Table 5, bold values spectrophotometric assay, non-bolded DELFIA assay (bold not visible here), read-out: % Inhibition @ 1 µM Tie2-P
T2 construct: 4 to 12 nM phosphorylated Tie-2 (aa 775-1122); made in house; host or cells: insect cells
Protocol: This construct also carries a R774M mutation, which serves as the initiating methionine residue in translation.
The kinase-catalyzed production of ADP from ATP that accompanies phosphoryl transfer to the random copolymer poly(Glu4 Tyr) was coupled to the oxidation of NADH through the activities of pyruvate kinase (PK) and lactate dehydrogenase (LDH). NADH conversion to NAD* was monitored by the decrease in absorbance at 340 nm (ε = 6.22 cm^-1mM^-1) using a Beckman DU650 spectrophotometer. Typical reaction solutions contained 1 mM phosphoenolpyruvate, 0.24 mM NADH, 40 mM MgCl2, 5 mM DTT, 2.9 mg/mL poly(Glu4Tyr), 0.5 mM ATP, 15 units/mL PK, 15 units/mL LDH in 100 mM HEPES, pH 7.5. […]

[5] = tested on: human umbilical vein endothelial cells (HUVEC); assay: HUVEC proliferation assay (VEGF-stimulated, MTT); format: cell-based; conditions: Homo sapiens, HUVEC
[6] = tested on: lung cancer cells (line MV522); assay: Cancer cell proliferation (MV522) assay; format: cell-based
Protocol: The protocol for assessing cellular proliferation in cancer cells is similar to that used for assessments in HUVEC cells. Two thousand lung cancer cells (line MV522, acquired from American Tissue Cultural Collection) were seeded in growth media (RPMI1640 medium supplemented with 2 mM glutamine and 10% FBS). Cells are allowed to attach for 1 day prior to addition of test agents and /or vehicles. Cells are treated simultaneously with the same test agents used in the HUVEC assay. Cellular proliferation is quantified by MTT dye reduction assay 72 hours after exposure to test agents. The total length of the assay is 4 days vs. 5 for HUVEC cells because MV522 cells are not exposed to starvation medium.

[7] = in vitro; format: in vitro ADME, human; conditions: human liver microsomes, 5 µM test compound, 37 °C, 2 h; for remaining at 2 h, 5 µM: read-out: % remain (HLM, 2 h)
How it was run: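 HLM diluted to 5 mg/mL in 100 mM KPO4, preincubated 10 min at 37 °C with NADPH-regenerating system. Compound (5 µM final) incubated at 37 °C in triplicate, sampled at 0 and 2 h into ice-cold acetonitrile, then LC-MS analysis.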

[8] = tested on: VEGF dependent retinal neovascularization; assay: Neonatal rat model of retinopathy of prematurity; format: in vivo; conditions: Model ROP, intravitreal
[9] = target: CDK4/Cyclin D3 complex (Homo sapiens, UniProt P11802); assay: biochemical; conditions: read-out: CDK4 * (% inhibition)
[10] = tested on: VEGF dependent retinal vascular development; assay: In vivo assay of retinal vascular development in neonatal rats; parameters: species or system rat
Protocol: The development of the retinal vascular in rats occurs from postnatal day 1 to postnatal day 14 (P1-P14). […] To assess the ability of specific compounds to inhibit the activity of VEGF in vivo, compounds were formulated in an appropriate vehicle, usually 50% polyethylene glycol, average molecular weight 400 daltons, and 50% solution of 300 mM sucrose in deionized water. […] Six days after the intravitreal injection, the animals were sacrificed and the retinas dissected free from the remaining ocular tissue. […] The individual retinas are then flat-mount onto glass slides and examined to determine the extent of vascularization. […] The amount of vessel regression was used to assess the relative potency of the compounds after in vivo administration.
For more quantitative analysis of regression, images of ADPase-stained, flat-mounted retinas were captured with a digital camera attached to a dissecting microscope. Retinal images were then imported into an image analysis software (Image Pro Plus 4.0, Media Cybernetics, Silver Spring, MD). The software was employed to determine the percentage of the area of the retina that contained stained vessels. This value for the experimental eye was compared to that measured for the vehicle injected, contralateral eye from the same animal. The reduction in the vascular area seen in the eye that received compound as compared to the vehicle-injected eye was then expressed as the "percent regression" for that sample.

[11] = PO, 25 mg/kg, vehicle PEG400:H2O pH 2.3 30:70
[12] = in vivo; conditions: mouse, plasma, po, 25 mg/kg, pH 2.3
[13] = Table 1, compound concentration 1 µM
[14] = Table 1, + albumin, read-out: HUVEC + albumin IC50
[15] = MV522, Table 1, read-out: MV522 IC50
[16] = 5 mg/ml, vehicle PEG/water 70:30
[17] = 10 mg/ml, vehicle PEG/water 70:30

human FGF-R1, sequence (P11362 456-766 L457V/C488A/C584S): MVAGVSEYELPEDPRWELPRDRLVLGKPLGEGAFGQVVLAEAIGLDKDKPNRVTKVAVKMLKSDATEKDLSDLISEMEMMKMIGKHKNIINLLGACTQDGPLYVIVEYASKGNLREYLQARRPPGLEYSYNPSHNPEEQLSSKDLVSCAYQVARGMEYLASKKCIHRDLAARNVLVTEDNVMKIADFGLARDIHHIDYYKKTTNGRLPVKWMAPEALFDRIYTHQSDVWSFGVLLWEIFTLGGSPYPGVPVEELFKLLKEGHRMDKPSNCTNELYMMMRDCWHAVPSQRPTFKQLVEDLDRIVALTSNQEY
T2 sequence (Q02763 775-1122): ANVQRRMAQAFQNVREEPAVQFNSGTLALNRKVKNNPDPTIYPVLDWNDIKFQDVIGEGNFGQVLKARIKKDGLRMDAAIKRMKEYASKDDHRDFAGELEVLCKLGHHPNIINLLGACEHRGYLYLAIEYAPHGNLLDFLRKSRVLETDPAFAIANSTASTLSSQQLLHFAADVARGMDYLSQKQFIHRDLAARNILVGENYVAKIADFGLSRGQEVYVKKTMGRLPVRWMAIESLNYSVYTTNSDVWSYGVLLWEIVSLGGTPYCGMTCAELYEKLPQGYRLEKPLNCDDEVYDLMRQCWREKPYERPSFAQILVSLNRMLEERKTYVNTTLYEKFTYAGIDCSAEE
LCK tyrosine kinase, sequence (P06239 223-509 P223M/C224D): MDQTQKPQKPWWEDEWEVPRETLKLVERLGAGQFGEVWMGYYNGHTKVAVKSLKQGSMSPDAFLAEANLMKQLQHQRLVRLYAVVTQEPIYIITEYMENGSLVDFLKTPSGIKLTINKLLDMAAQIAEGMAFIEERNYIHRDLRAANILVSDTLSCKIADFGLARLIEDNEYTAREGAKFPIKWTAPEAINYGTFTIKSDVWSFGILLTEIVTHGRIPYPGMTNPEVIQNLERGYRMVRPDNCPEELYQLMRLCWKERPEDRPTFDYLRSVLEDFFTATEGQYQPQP
CDK4/Cyclin D3 complex, sequence (P11802 whole entry): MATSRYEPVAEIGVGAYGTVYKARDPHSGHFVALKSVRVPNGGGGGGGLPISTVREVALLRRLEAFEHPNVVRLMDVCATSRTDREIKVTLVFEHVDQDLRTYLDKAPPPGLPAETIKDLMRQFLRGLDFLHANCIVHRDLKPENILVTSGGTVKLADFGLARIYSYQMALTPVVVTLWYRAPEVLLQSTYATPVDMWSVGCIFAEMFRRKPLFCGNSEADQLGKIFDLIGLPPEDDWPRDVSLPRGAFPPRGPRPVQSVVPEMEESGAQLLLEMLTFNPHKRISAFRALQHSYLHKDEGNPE
CDK4/Cyclin D3 complex, sequence (P30281 whole entry partner): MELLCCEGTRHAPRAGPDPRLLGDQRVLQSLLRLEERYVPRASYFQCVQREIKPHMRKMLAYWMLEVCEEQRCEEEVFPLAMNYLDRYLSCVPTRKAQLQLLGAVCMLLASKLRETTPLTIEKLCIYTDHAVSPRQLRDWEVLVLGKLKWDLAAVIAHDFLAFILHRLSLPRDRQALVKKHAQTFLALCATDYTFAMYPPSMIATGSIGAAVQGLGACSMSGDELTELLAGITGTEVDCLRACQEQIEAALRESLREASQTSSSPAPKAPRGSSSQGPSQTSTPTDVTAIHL

## COc1cc(-c2ccc3c(-c4cc5ccccc5[nH]4)n[nH]c3c2)ccc1O [2(d), 3-(1H-Indol-2-yl)-6-(3-methoxy-4-hydroxy-phenyl)-1H-indazole]
[1]; Table 1, read-out: FGF-P* (Ki)
  Ki: 68 nM
[2]
  inhibition at 1 µM: 43%
[3]
  Ki: 91 nM
[4]; read-out: % Inhibition Tie2-P, compound tested at 10 µM
  inhibition at 10 µM: 90%
[5]; read-out: HUVEC IC50 (nM)
  IC50: 450 nM
[6]; MV522, read-out: MV522 IC50 (µM)
  IC50: 0.18 µM

## CC(=O)Nc1cccc(Oc2ccc3c(/C=C/c4ccccc4)n[nH]c3c2)c1 [4(b), N-[3-(3-Styryl-1H-indazol-6-yloxy)-phenyl]-acetamide]
[1]
  Ki: 4.9 nM
[2]; [13]
  inhibition at 1 µM: 13%
[4]
  inhibition at 1 µM: 29%
[5]; [14]
  IC50: 205 nM
[5]; Table 1, read-out: HUVEC IC50
  IC50: 25 nM
[6]; [15]
  IC50: 3.2 µM
[7]
  remaining at 2 h, 5 µM: 63%

## Cc1cnc(C(=O)Nc2cccc(Oc3ccc4c(/C=C/c5ccccc5)n[nH]c4c3)c2)s1 [5(a), 5-Methyl-thiazole-2-carboxylic acid {3-(3-styryl-1H-indazol-6-yloxy)-phenyl]-amide]
[2]; [13]
  inhibition at 1 µM: 28%
[4]
  inhibition at 1 µM: 44%
[5]; Table 1, read-out: HUVEC IC50
  IC50: 12 nM
[6]; [15]
  IC50: 9.6 µM

## Cc1cccc(C(=O)Nc2cccc(Oc3ccc4c(/C=C/c5ccccc5)n[nH]c4c3)c2)c1 [5(b), 3-Methyl-N-[3-(3-styryl-1h-indazol-6-yloxy)-phenyl]-benzamide]
[2]; [13]
  inhibition at 1 µM: 78%
[5]; [14]
  IC50: 33 nM
[5]; Table 1, read-out: HUVEC IC50
  IC50: 3.7 nM
[6]; [15]
  IC50: 8.5 µM
[8]; [16]
  % Inhibition: 45%
  Initial Evaluation: ++ (two pluses being judged to be approximately 25-75 % regression)

## O=C(Nc1cccc(Oc2ccc3c(/C=C/c4ccc(Cl)cc4)n[nH]c3c2)c1)c1ccccc1 [6(a), N-(3-[3-[2-(4-Chloro-phenyl)-vinyl]-1H-indazol-6-yloxy}-phenyl)-benzamide]
[1]; Table 1
  inhibition at 1 µM: 67%
[2]; [13]
  inhibition at 1 µM: 33%
[5]; [14]
  IC50: 50 nM
[5]; Table 1, read-out: HUVEC IC50
  IC50: 8.5 nM
[6]; [15]
  IC50: 3.5 µM
[7]
  remaining at 2 h, 5 µM: 69%
[8]; 5 mg/ml, vehicle PEG/water
  Initial Evaluation: ++ (two pluses being judged to be approximately 25-75 % regression)

## Cc1cccc(C(=O)Nc2cccc(Oc3ccc4c(-c5cc6ccccc6[nH]5)n[nH]c4c3)c2)c1 [6(b), N-{3-[3-(2-Indolyl)-1H-indazol-6-yloxy]-phenyl}-3-methyl benzamide]
[1]; Table 1
  inhibition at 1 µM: 95%
[2]; [13]
  inhibition at 1 µM: 81%
[5]; [14]
  IC50: 60 nM
[5]; Table 1, read-out: HUVEC IC50
  IC50: 8 nM
[6]; [15]
  IC50: 4 µM
[8]; [17]
  Initial Evaluation: ++ (two pluses being judged to be approximately 25-75 % regression)

## CN(c1cccc(NC(=O)c2ccccc2)c1)c1ccc2c(/C=C/c3ccc4c(c3)OCO4)n[nH]c2c1 [16(a), N-(3-{[3-(2-Benzo[1,3]dioxol-5-yl-vinyl)-1H-indazol-6-yl]-methyl-amino}-phenyl)-benzamide]
[1]; Table 1
  inhibition at 1 µM: 65%
[2]; [13]
  inhibition at 1 µM: 28%
[4]
  inhibition at 1 µM: 10%
[5]; [14]
  IC50: 112 nM
[6]; [15]
  IC50: 8 µM
[7]
  remaining at 2 h, 5 µM: 7%

## C=C(c1cccc(NC(C)=O)c1)c1ccc2c(/C=C/c3ccccc3)n[nH]c2c1 [Example 23, 6-(1-(3-Acetamido-phenyl)-vinyl)-3-styryl-1H-indazole]
[1]; Table 1
  inhibition at 1 µM: 14%
[2]; [13]
  inhibition at 1 µM: 12%
[4]
  inhibition at 1 µM: 5%
[5]; [14]
  IC50: 106 nM
[5]; Table 1, read-out: HUVEC IC50
  IC50: 9.5 nM
[6]; [15]
  IC50: 5.7 µM
[9]
  inhibition at 1 µM: 17%

## O=C(Nc1cccc(Oc2ccc3c(/C=C/c4cccs4)n[nH]c3c2)c1)c1ccccc1 [Reference Example 30(a), 6-[3-benzamidophenoxy]-3-E-[2-(thien-2-yl)thenyl]-1H-indazole]
[1]; Table 1
  inhibition at 1 µM: 94%
[2]; [13]
  inhibition at 1 µM: 45%
[4]
  inhibition at 1 µM: 19%
[5]; [14]
  IC50: 22 nM
[5]; Table 1, read-out: HUVEC IC50
  IC50: 1.6 nM
[6]; [15]
  IC50: 5.7 µM
[7]
  % remain (HLM, 2 h): 64%
[8]; [17]
  % Inhibition: 48%
  Initial Evaluation: ++ (two pluses being judged to be approximately 25-75 % regression)

## Cn1ccnc1C(=O)Nc1cccc(Oc2ccc3c(/C=C/c4ccccn4)n[nH]c3c2)c1 [Reference Example 31(e), 6-[3-((1-Methylimidazol-2-yl)carboxamido)phenoxy]-3-E-[2-(pyridin-2-yl)ethenyl]-1H-indazole]
[1]; Table 1
  inhibition at 1 µM: 62%
[2]; [13]
  inhibition at 1 µM: 43%
[5]; [14]
  IC50: 6.2 nM
[6]; [15]
  IC50: 8.6 µM
[7]
  % remain (HLM, 2 h): 49%
[10]; Model P8, intravitreal, 5 mg/ml, vehicle PEG/water 50:50
  % Inhibition: 24%
[11]
  T1/2: 13.1 h
[12]
  AUC: > 30300 ng·h/mL

## O=C(Nc1cccc(C(=O)c2ccc3c(-c4nc5ccccc5[nH]4)n[nH]c3c2)c1)c1ccccc1 [Reference Example 42(b), 6-(3-Benzamidobenzoyl)-3-(1H-benzoimidazol-2-yl)-1H-indazole]
[1]; Table 1
  inhibition at 1 µM: 27%
[2]; [13]
  inhibition at 1 µM: 75%
[5]; [14]
  IC50: 29 nM
[5]; Table 1, read-out: HUVEC IC50
  IC50: 2.1 nM
[6]; [15]
  IC50: 2.1 µM
[7]
  % remain (HLM, 2 h): 81%
[10]; Model P9, intravitreal, 10 mg/ml, vehicle PEG/water 70:30
  % Inhibition: 40%
